This note sets out measurements from US20230066011A1, “PYRROLOPYRIMIDINE DERIVATIVE, AND PHARMACEUTICAL COMPOSITION FOR PREVENTING OR TREATING PROTEIN KINASE-RELATED DISEASE COMPRISING SAME AS ACTIVE INGREDIENT” (VORONOI CO., LTD., priority 2019, published 2023).

The target of one assay is T1, human GST-DYRK1A (Homo sapiens, UniProt Q13627).
T1 construct: purified human GST-DYRK1A (full length, Thermo Scientifics) enzyme; purchased Thermo Scientifics
As to the kind of experiment: GST-DYRK1A enzyme inhibition, ADP-Glo kinase assay. The assay is classed as biochemical. The following applies: ATP 10 μM, GST-DYRK1A full length, read-out: DYRK1 IC50. Summed up:
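Full-length enzyme (10 ng) was incubated with 10 μM ATP and a specific substrate for 1 h at 25 °C in 40 mM Tris-HCl pH 7.4, 20 mM MgCl2, 0.5 mg/mL BSA, 50 μM DTT. Luminescence was read against a solvent control, and IC50 values were derived from 3 data sets.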
On the technique in general: ADP-Glo turns the ADP formed in a reaction into a luminescent signal.

The test system of the next assay is MDA-MB-231 cell line. Kind of assay: Inhibition of proliferation of MDA-MB-231 cancer cells (Cell Titer-Glo). The assay is classed as cell-based. The settings on record: Homo sapiens, 72 hours. How it is done: (§1) To evaluate an inhibitory effect on the proliferation of cancer cells, each of an MDA-MB-231 cell line (Korean Cell Line Bank #30026) and an MDA-MB-468 cell line as triple-negative breast cancer cell lines, and SHP-77 (ATCC #CRL-2195) as a small-cell lung cancer cell line was cultured in DMEM (HyClone #SH30243) or an RPMI medium (HyClone #SH3027.01) to analyze a cell growth rate. More specifically, a cell line was plated on a 96-well flat bottom plate (Corning #3903) at a density of 2,000 cells/100 μL per well, and then treated with 11 concentrations of the Example compound, a solution of which was diluted 3-fold so that a final concentration of the compound was 10.000000, 3.333333, 1.111111, 0.370370, 0.123457, 0.041152, 0.013717, 0.004572, 0.001524, 0.000508, and 0.000169 μM. After 72 hours, each of the culture media was treated with 100 μL of Cell Titer-Glo (Promega G7573), and then cultured at room temperature for 10 minutes. Then, a degree of luminescence was measured using a microplate reader. A GI50 value was calculated from the measured degree of luminescence using Prism (Version 8.2 GraphPad) software.
(In ATP-based viability assays light output follows the ATP content of the culture.)

Another assay has as its target LRRK2 (Homo sapiens, UniProt Q5S007). As to the kind of experiment: LRRK2 enzyme inhibition, ADP-Glo kinase assay. Format: biochemical. Further details: purchased Invitrogen PR8604B. The settings on record: ATP 10 μM. In a few lines:
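ADP-Glo luminescent read-out of ADP formed by purified human LRRK2 enzyme (25 ng), 10 μM ATP, 0.2 μg substrate, 25° C for 2 h, Tris-HCl pH 7.4 buffer with MgCl2, BSA, DTT. Inhibition versus untreated solvent control over twelve final concentrations (50 μM downward) gives IC50.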

A further assay deals with LRRK2 (G2019S) (Homo sapiens, UniProt Q5S007, G2019S). Kind of assay: LRRK2 G2019S enzyme inhibition, ADP-Glo kinase assay. Further details: purchased SignalChem L10-12GG. The assay is classed as biochemical. The following applies: ATP 25 μM. In a few lines:
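IC50 derived from luminescent ADP-Glo readout against untreated solvent control, twelve final compound concentrations from 50 μM downward. Reaction: recombinant human LRRK2 G2019S enzyme, 25 μM ATP, substrate, pH 7.4 Tris buffer with MgCl2/BSA/DTT, 25° C. for 2 hours.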

For a further assay, the target named is T2, human GST-CLK1 (Homo sapiens, UniProt P49759).
T2 construct: purified human GST-CLK1 (129-end, SignalChem) enzyme; purchased SignalChem
As to the kind of experiment: GST-CLK1 enzyme inhibition, ADP-Glo kinase assay. Format: biochemical. The following applies: ATP 10 μM, GST-CLK1 129-end. Summed up:
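ADP-Glo luminescence read-out, relative to untreated solvent control, gave IC50 (nM) from triplicate data sets. Reactions ran an hour at 25° C with 3 ng GST-CLK1 (residues 129-end), 10 μM ATP and specific substrate in Tris-HCl pH 7.4 buffer with MgCl2, BSA and DTT.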

A further assay has as its system MDA-MB-468 cell line. Kind of assay: Inhibition of proliferation of MDA-MB-468 cancer cells (Cell Titer-Glo). Format: cell-based. The settings on record: Homo sapiens, MDA-MB-468, 72 hours. How it is done:
as §1

Each structure is given as a SMILES string. Where only a bound is given, the exact number is not on record here.

Sequence of LRRK2 (G2019S) (Q5S007 970-2527 G2019S limits assumed): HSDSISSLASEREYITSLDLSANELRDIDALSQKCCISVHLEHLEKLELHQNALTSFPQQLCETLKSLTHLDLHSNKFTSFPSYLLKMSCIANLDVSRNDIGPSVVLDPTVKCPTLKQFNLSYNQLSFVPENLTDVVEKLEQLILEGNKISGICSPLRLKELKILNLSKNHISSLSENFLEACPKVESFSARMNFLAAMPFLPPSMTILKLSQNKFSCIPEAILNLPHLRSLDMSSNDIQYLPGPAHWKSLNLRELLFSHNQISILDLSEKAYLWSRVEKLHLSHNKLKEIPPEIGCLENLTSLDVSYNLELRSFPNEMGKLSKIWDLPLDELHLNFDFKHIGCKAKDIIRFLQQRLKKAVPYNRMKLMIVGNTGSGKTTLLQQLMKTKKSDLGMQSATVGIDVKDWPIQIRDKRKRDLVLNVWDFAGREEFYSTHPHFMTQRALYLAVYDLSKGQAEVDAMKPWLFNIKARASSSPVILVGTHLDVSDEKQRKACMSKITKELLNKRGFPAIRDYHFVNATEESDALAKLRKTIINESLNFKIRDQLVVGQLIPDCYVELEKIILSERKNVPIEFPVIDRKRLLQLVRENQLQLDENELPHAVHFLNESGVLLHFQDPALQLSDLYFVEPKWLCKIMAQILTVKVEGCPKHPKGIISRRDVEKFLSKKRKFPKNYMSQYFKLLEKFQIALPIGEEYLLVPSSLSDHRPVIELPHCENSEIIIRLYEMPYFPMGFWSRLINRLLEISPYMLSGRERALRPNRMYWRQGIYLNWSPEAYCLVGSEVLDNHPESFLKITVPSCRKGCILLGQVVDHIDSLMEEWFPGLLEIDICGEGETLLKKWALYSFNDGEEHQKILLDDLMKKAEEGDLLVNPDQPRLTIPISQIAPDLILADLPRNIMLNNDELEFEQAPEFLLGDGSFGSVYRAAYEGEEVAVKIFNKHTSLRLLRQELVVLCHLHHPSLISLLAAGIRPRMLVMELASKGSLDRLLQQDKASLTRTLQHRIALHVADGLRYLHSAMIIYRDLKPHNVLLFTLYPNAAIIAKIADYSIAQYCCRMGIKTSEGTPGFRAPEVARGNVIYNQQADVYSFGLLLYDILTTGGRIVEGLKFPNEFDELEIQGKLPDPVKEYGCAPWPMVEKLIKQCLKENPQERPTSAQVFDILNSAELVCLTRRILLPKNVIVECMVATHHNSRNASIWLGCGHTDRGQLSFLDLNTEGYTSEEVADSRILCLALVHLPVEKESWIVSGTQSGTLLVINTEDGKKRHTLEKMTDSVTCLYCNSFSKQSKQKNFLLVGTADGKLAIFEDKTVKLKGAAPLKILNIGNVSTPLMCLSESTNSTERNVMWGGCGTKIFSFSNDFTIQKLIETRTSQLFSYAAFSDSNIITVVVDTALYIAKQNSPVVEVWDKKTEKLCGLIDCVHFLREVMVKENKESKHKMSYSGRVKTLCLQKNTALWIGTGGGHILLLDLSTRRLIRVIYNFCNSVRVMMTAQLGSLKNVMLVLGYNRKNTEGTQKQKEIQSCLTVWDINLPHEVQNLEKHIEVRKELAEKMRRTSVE
Sequence of LRRK2 (Q5S007 970-2527 limits assumed): as the sequence (Q5S007 970-2527 G2019S limits assumed) above, with S1050G counted along it
T2 sequence (P49759 129-484 limits assumed): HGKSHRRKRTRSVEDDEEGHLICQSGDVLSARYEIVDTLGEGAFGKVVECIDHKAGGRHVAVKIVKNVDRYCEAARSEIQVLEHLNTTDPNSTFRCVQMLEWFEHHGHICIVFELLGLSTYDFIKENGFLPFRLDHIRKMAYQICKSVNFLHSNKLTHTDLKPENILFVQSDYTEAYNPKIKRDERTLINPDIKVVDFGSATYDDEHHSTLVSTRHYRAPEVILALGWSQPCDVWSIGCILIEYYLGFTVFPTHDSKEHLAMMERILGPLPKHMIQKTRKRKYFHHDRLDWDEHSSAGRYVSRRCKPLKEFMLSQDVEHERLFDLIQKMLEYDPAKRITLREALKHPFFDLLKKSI

For the compound `COc1cc(S(=O)(=O)N2CCC(N3CCOCC3)CC2)ccc1Nc1nc(NC2CC2)c2c(C(F)(F)F)c[nH]c2n1` [Example 375, N^4-cyclopropyl-N^2-(2-methoxy-4-((4-morpholino-piperidin-1-yl)sulfonyl)phenyl)-5-(trifluoromethyl)-7H-pyrrolo[2,3-d]pyrimidine-2,4-diamine], the IC50 on human GST-DYRK1A is 301 to 1000 nM; at LRRK2, less than 100 nM; at LRRK2 (G2019S) it was less than 100 nM; at human GST-CLK1, 101 to 300 nM. The GI50 was 101 to 300 nM with MDA-MB-231 cell line and 301 to 1000 nM in the assay on MDA-MB-468 cell line.

On to `CCNc1nc(Nc2ccc(S(=O)(=O)N3CCOCC3)c3c2OCCO3)nc2[nH]cc(C(F)(F)F)c12` [Example 432, N^4-ethyl-N^2-(8-(morpholino-sulfonyl)-2,3-dihydro-benzo[b][1,4]dioxin-5-yl)-5-(trifluoromethyl)-7H-pyrrolo[2,3-d]pyrimidine-2,4-diamine], for which the IC50 on human GST-DYRK1A is 301 to 1000 nM; at LRRK2, less than 100 nM; at LRRK2 (G2019S), 101 to 300 nM; against human GST-CLK1 it was 301 to 1000 nM. Moreover, the GI50 in the assay on MDA-MB-231 cell line and with MDA-MB-468 cell line was 301 to 1000 nM throughout.

Take `CCCNc1nc(Nc2ccc(S(=O)(=O)N3CCOCC3)cc2OC)nc2[nH]cc(C(F)(F)F)c12` [Example 372, N^2-(2-methoxy-4-(morpholino-sulfonyl)phenyl)-N^4-propyl-5-(trifluoromethyl)-7H-pyrrolo[2,3-d]pyrimidine-2,4-diamine]: the concentration for half-maximal inhibition (IC50) at human GST-DYRK1A is 301 to 1000 nM; at LRRK2, 101 to 300 nM; against LRRK2 (G2019S) it was less than 100 nM; against human GST-CLK1, 301 to 1000 nM. Also, the GI50 with MDA-MB-231 cell line and in the assay with MDA-MB-468 cell line was 301 to 1000 nM each time.

Turning to `CCCNc1nc(Nc2ccc(S(=O)(=O)N3CCC(N4CCOCC4)CC3)cc2OC)nc2[nH]cc(C#N)c12` [Example 83, 2-((2-methoxy-4-((4-morpholinopiperidin-1-yl)sulfonyl)phenyl)amino)-4-(propylamino)-7H-pyrrolo[2,3-d]pyrimidin-5-carbonitrile], the IC50 is 301 to 1000 nM on human GST-DYRK1A, less than 100 nM against LRRK2, less than 100 nM at LRRK2 (G2019S) and 101 to 300 nM against human GST-CLK1. Besides, the GI50 with MDA-MB-231 cell line and in the assay with MDA-MB-468 cell line was less than 50 nM throughout.

For the compound `COc1cc(S(=O)(=O)N2CCOCC2)ccc1Nc1nc(NC2CC2)c2c(C(F)(F)F)c[nH]c2n1` [Example 374, N^4-cyclopropyl-N^2-(2-methoxy-4-(morpholino-sulfonyl)phenyl)-5-(trifluoromethyl)-7H-pyrrolo[2,3-d]pyrimidine-2,4-diamine], the IC50 on human GST-DYRK1A is 301 to 1000 nM; at LRRK2, less than 100 nM; against LRRK2 (G2019S) it was less than 100 nM; against human GST-CLK1, 301 to 1000 nM. Further, the GI50 in the assay with MDA-MB-231 cell line and with MDA-MB-468 cell line was 301 to 1000 nM throughout.

On to `CCNc1nc(Nc2ccc(S(=O)(=O)N3CCC(N4CCOCC4)CC3)cc2OC)nc2[nH]cc(C#N)c12` [Example 82, 4-(ethylamino)-2-((2-methoxy-4-((4-morpholinopiperidin-1-yl)sulfonyl)phenyl)amino)-7H-pyrrolo[2,3-d]pyrimidine-5-carbonitrile], for which the IC50 at human GST-DYRK1A is 301 to 1000 nM; on LRRK2, less than 100 nM; at LRRK2 (G2019S), less than 100 nM; against human GST-CLK1, less than 100 nM. The GI50 in the assay with MDA-MB-231 cell line and in the assay with MDA-MB-468 cell line was less than 50 nM in each case.

With `COCCNc1nc(Nc2ccc(S(=O)(=O)N3CCOCC3)cc2OC)nc2[nH]cc(C(F)(F)F)c12` [Example 373, N^2-(2-methoxy-4-(morpholino-sulfonyl)phenyl)-N^4-(2-methoxyethyl)-5-(trifluoromethyl)-7H-pyrrolo[2,3-d]pyrimidine-2,4-diamine], the IC50 on human GST-DYRK1A was 301 to 1000 nM; on LRRK2, less than 100 nM; against LRRK2 (G2019S), less than 100 nM; against human GST-CLK1 it was 301 to 1000 nM. The GI50 in the assay on MDA-MB-231 cell line and in the assay with MDA-MB-468 cell line was 301 to 1000 nM each time.

With `COc1cc(S(=O)(=O)N2CCC(N3CCOCC3)CC2)ccc1Nc1nc(NC2CC2)c2c(C#N)c[nH]c2n1` [Example 88, 4-(cyclopropylamino)-2-((2-methoxy-4-((4-morpholinopiperidin-1-yl)sulfonyl)phenyl)amino)-7H-pyrrolo[2,3-d]pyrimidine-5-carbonitrile], the IC50 at human GST-DYRK1A is 101 to 300 nM; at LRRK2 it was less than 100 nM; on LRRK2 (G2019S), less than 100 nM; on human GST-CLK1, 101 to 300 nM. Moreover, the GI50 in the assay with MDA-MB-231 cell line lay within 101 to 300 nM; with MDA-MB-468 cell line, 51 to 100 nM.

Regarding `COc1cc(S(=O)(=O)N2CCOCC2)ccc1Nc1nc(NC2CCC2)c2c(C(F)(F)F)c[nH]c2n1` [Example 377, N^4-cyclobuty-N2-(2-methoxy-4-(morpholino-sulfonyl)phenyl)-5-(trifluoromethyl)-7H-pyrrolo[2,3-d]pyrimidine-2,4-diamine], the IC50 is 301 to 1000 nM on human GST-DYRK1A, 101 to 300 nM against LRRK2, 101 to 300 nM against LRRK2 (G2019S) and less than 100 nM against human GST-CLK1. Moreover, the GI50 in the assay with MDA-MB-231 cell line and with MDA-MB-468 cell line was 301 to 1000 nM in each case.

`CC[C@H](C)Nc1nc(Nc2ccc(S(=O)(=O)N3CCC(N4CCOCC4)CC3)cc2OC)nc2[nH]cc(C(F)(F)F)c12` [Example 211, (S)-N^4-(sec-butyl)-N^2-(2-methoxy-4-((4-morpholinopiperidin-1-yl)sulfonyl)phenyl)-5-(trifluoromethyl)-7H-pyrrolo[2,3-d]pyrimidine-2,4-diamine]: the IC50 on human GST-DYRK1A is 301 to 1000 nM; on LRRK2, less than 100 nM; against LRRK2 (G2019S), 101 to 300 nM; on human GST-CLK1, 301 to 1000 nM. The GI50 with MDA-MB-231 cell line and with MDA-MB-468 cell line was 301 to 1000 nM each time.

For the compound `N#Cc1c[nH]c2nc(Nc3ccc(C(=O)N4CCOCC4)c4c3OCCO4)nc(NC3CCCC3)c12` [Example 126, 4-(cyclopentylamino)-2-((8-(morpholine-4-carbonyl)-2,3-dihydrobenzo[b][1,4]dioxin-5-yl)amino)-7H-pyrrolo[2,3-d]pyrimidine-5-carbonitrile], the values for the IC50 on human GST-DYRK1A, at LRRK2 and on human GST-CLK1 were 301 to 1000 nM, less than 100 nM and 301 to 1000 nM, respectively. Besides, the GI50 in the assay with MDA-MB-231 cell line lay in the range of 101 to 300 nM; with MDA-MB-468 cell line it was 51 to 100 nM.

With `COCCNc1nc(Nc2ccc(S(=O)(=O)N3CCC(N4CCOCC4)CC3)cc2OC)nc2[nH]cc(C#N)c12` [Example 87, 2-((2-methoxy-4-((4-morpholinopiperidin-1-yl)sulfonyl)phenyl)amino)-4-((2-methoxyethyl)amino)-7H-pyrrolo[2,3-d]pyrimidine-5-carbonitrile], the IC50 at human GST-DYRK1A was 101 to 300 nM; against LRRK2 it was less than 100 nM; against LRRK2 (G2019S) it was less than 100 nM; against human GST-CLK1, less than 100 nM. Besides, the 50% growth inhibitory concentration (GI50) in the assay with MDA-MB-231 cell line was 101 to 300 nM; with MDA-MB-468 cell line, less than 50 nM.

As to `CCNc1nc(Nc2ccc(S(=O)(=O)N3CCC(N4CCOCC4)CC3)c3c2OCC3)nc2[nH]cc(C(F)(F)F)c12` [Example 467, N^4-ethyl-N^2-(4-((4-morpholino-piperidin-1-yl)sulfonyl)-2,3-dihydrobenzo-furan-7-yl)-5-(trifluoromethyl)-7H-pyrrolo[2,3-d]pyrimidine-2,4-diamine], the IC50 is 301 to 1000 nM at human GST-DYRK1A, less than 100 nM against LRRK2 and 301 to 1000 nM against human GST-CLK1. In addition, the concentration for 50% growth inhibition (GI50) with MDA-MB-231 cell line lay in the range of 51 to 100 nM; in the assay on MDA-MB-468 cell line, 101 to 300 nM.

One may read the IC50 as the midpoint of a concentration-inhibition curve. For orientation: GI50 means the concentration at which growth is held to half of that of the control.
